In patent US12616740B2, “Methods of using a GIP/GLP1 co-agonist for therapy” (ELI LILLY AND COMPANY, priority 2018, dated 2026):

Assay: NCT03311724: weight loss at Week 12
Assay type: in vivo, human
Source text: This is a 12-week treatment with a 1 week screening (Visit 1) followed by a 1 week lead-in (Visit 2), then 12 weeks of treatment (Visits 3-10, including telephone visits), then followed by 4-week safety follow-up. It is a Phase 2 study designed to examine the efficacy and tolerability of subcutaneously once-weekly tirzepatide compared with placebo in patients with type 2 diabetes who have inadequate glycemic control with diet and exercise alone or with a stable dose of metformin. The study was designed per below and conducted to refine the escalation scheme.

[1] = LY 12 mg Group 3 (tirzepatide 4 mg × 4, 8 mg × 4, 12 mg × 4 once weekly), LOCF Week 12 (N = 27)
[2] = LY 12 mg Group 3 (tirzepatide 4 mg × 4, 8 mg × 4, 12 mg × 4 once weekly), Week 12 mITT on-treatment (N = 27)
[3] = LY 15 mg-Group 1 (tirzepatide 2.5 mg × 2, 5 mg × 2, 10 mg × 4, 15 mg × 4 once weekly), LOCF Week 12 (N = 27)
[4] = LY 15 mg-Group 1 (tirzepatide 2.5 mg × 2, 5 mg × 2, 10 mg × 4, 15 mg × 4 once weekly), Week 12 mITT on-treatment (N = 23)
[5] = LY 15 mg-Group 2 (tirzepatide 2.5 mg × 4, 7.5 mg × 4, 15 mg × 4 once weekly), LOCF Week 12 (N = 27)
[6] = LY 15 mg-Group 2 (tirzepatide 2.5 mg × 4, 7.5 mg × 4, 15 mg × 4 once weekly), Week 12 mITT on-treatment (N = 26)

For tirzepatide [LY], the “body weight vs placebo (in words)” value (12 mg and 15 mg tirzepatide doses, at 12 weeks) was “significant reductions in body weight compared with placebo”, the “% of Patients Achieving Weight loss ≥5%” value [1] was 63.0% and the “% of Patients Achieving Weight loss ≥10%” value [1] was 18.5%. The “odds ratio vs. placebo, Weight loss ≥5%” value [1] was 22.7, the “odds ratio vs. placebo, Weight loss ≥10%” value [1] was 10.4 and the “% of Patients Achieving Weight loss ≥5%” value [2] was 63.0%. For the same substance, the “% of Patients Achieving Weight loss ≥10%” value [2] was 18.5%, the “odds ratio vs. placebo, Weight loss ≥5%” value [2] was 20.7 and the “odds ratio vs. placebo, Weight loss ≥10%” value [2] was 9.3. The “% of Patients Achieving Weight loss ≥5%” value [3] was 59.3%, the “% of Patients Achieving Weight loss ≥10%” value [3] was 14.8% and the “odds ratio vs. placebo, Weight loss ≥5%” value [3] was 20.5. For the same substance, the “odds ratio vs. placebo, Weight loss ≥10%” value [3] was 8.0, the “% of Patients Achieving Weight loss ≥5%” value [4] was 56.5% and the “% of Patients Achieving Weight loss ≥10%” value [4] was 13.0%. For the same substance, the “odds ratio vs. placebo, Weight loss ≥5%” value [4] was 17.1, the “odds ratio vs. placebo, Weight loss ≥10%” value [4] was 6.2 and the “% of Patients Achieving Weight loss ≥5%” value [5] was 55.6%. For the same substance, the “% of Patients Achieving Weight loss ≥10%” value [5] was 18.5%, the “odds ratio vs. placebo, Weight loss ≥5%” value [5] was 17.6 and the “odds ratio vs. placebo, Weight loss ≥10%” value [5] was 10.6. The “% of Patients Achieving Weight loss ≥5%” value [6] was 57.7%, the “% of Patients Achieving Weight loss ≥10%” value [6] was 19.2% and the “odds ratio vs. placebo, Weight loss ≥5%” value [6] was 17.4. For the same substance, the “odds ratio vs. placebo, Weight loss ≥10%” value [6] was 9.7.
